# Laboratory results from US4591582A, “Organophosphorus compounds useful as anticonvulsant agents” (priority 1984, dated 1986).
# Where two headings read alike, the source gives them in different places.
# Legend:
# [1] = test system: seizures induced by subcutaneous bicuculline (scBic); details: data taken from Kupferberg, 1980, cited from earlier work; for ED50, scBic: bicuculline 2.7 mg/kg s.c.
# [2] = test system: seizures induced by subcutaneous picrotoxin (scPic); details: data taken from Kupferberg, 1980, cited from earlier work; for ED50, scPic: picrotoxin 3.2 mg/kg s.c.
# [3] = test system: seizures induced by maximal electroshock (MES); details: data taken from Kupferberg, 1980; cited from earlier work
# [4] = test system: seizures induced by subcutaneous pentylenetetrazol (Metrazol) (scMet); details: data taken from Kupferberg, 1980, cited from earlier work; for ED50, scMet: pentylenetetrazol 85 mg/kg s.c.
# [5] = test system: convulsions induced in mice by MES and scMet; details: reported, Kupferberg, 1980; cited from earlier work
# neurotoxicity (Rotorod) [6] = details: data taken from Kupferberg, 1980; cited from earlier work
# [7] = test system: seizures induced by maximal electroshock (MES); assay: inhibition of seizures induced by maximal electroshock (MES) in mice, intraperitoneal; format: in vivo, male Carworth Farms No. 1 mice; details: for ED50, MES / P.I. (protective index, TD50/ED50), MES: i.p.; for factor of greater protection against MES than VPA: relative to VPA (valproic acid)
# Method: (§1) All tests were performed on male Carworth Farms No. 1 mice by the Antiepileptic Drug Development Program administered by the Section of Epilepsy, National Institutes of Health, Bethesda, MD 20014, according to previously described procedures [DHEW Publication No. (NIH) 76-1093 (1976), Bethesda, MD]. These involved the inhibition of seizures induced by maximal electroshock (MES) and by three subcutaneously administered chemicals: 85 mg/kg pentylenetetrazol (Metrazol) (scMet), 2.7 mg/kg bicuculline (scBic) and 3.2 mg/kg picrotoxin (scPic). Test compounds were solubilized in polyethylene glycol 400 and administered intraperitoneally in a volume of 0.01 ml/g. The time of peak anticonvulsant activity were determined for II (200 mg/kg), III (300 mg/kg) and IV (300 mg/kg) against MES and for I (200 mg/kg) against scMet with dosing of I-III at 0.5, […]. using four mice per dose. Neurotoxicity was evaluated by placing an animal on a 1 in. diameter knurled plastic rod and rotating at 6 rpm. Failure of the animal to remain on the rod for 1 min. signified neurological toxicity. This testing was performed using groups of eight mice on a time course basis by dosing with I (900 mg/kg), II (400 mg/kg) and III (360 mg/kg) after 0.5, 1, 2 and 4 hrs. and with IV (580 mg/kg) after an additional 6 and 24 hrs. The neurotoxicity was also similarly quantified, with observations taken 30 mins. after dosing, as follows (compound/mg/kg): I, 400, 500, 600, 700, 800, 900; II, 350, 400, 430, 470; III, 230, 260, 300, 360, 420; IV, 150, 300, 400, 500, 580, 600. Quantification of anticonvulsant activity was similarly determined as follows (compound, test, mg/kg), I, MES, 100, 140, 150, 160, 170, 190, 250; I, scMet, 140, 200, 240, 300, 400, 500; I, scBic, 350, 400, 450, 475, 500; I, scPic, 150, 250, 330, 440, 500; II, MES, 130, 170, 200, 230; II, scMet, 150, 180, 230, 300; III, MES, 220, 240, 280, 290, 300; III, scMet, 300, 400, 500, 600; IV, MES, 150, 220, 300, 400, 500, 600; IV, scMet, 300, 410, 470, 600, 760. […] I=dimethyl ester of 3-aminophenylphosphonic acid; II=diethyl ester of 3-aminophenylphosphonic acid; III=diisopropyl ester of 3-aminophenylphosphonic acid; and IV=diethyl-2-acetamidophenylphosphate.
# [8] = Rotorod neurotoxicity test (failure to remain on rotating rod, 6 rpm, for 1 min); format: in vivo, male Carworth Farms No. 1 mice; details: mouse, in vivo, ip; mice, i.p., 30 mins. after dosing
# Method: as §1
# [9] = test system: seizures induced by subcutaneous pentylenetetrazol (Metrazol) (scMet); assay: inhibition of seizures induced by subcutaneous pentylenetetrazol (Metrazol) (scMet), 85 mg/kg; format: in vivo, male Carworth Farms No. 1 mice; details: for P.I. (protective index, TD50/ED50), scMet / ED50, scMet: i.p.
# Method: as §1
# [10] = test system: convulsions induced in mice by MES and scMet; assay: time course of protection against convulsions induced by MES and scMet (FIG. 1); format: in vivo; details: i.p., 300 mg/kg
# Method: FIG. 1 is a graphical representation showing the time course of percent protection by intraperitoneally administered I-IV against seizures induced by maximal electroshock (MES) or subcutaneous pentylenetetrazol (Metrazol) (scMet). Key: ( ) I (dimethyl ester of 3-aminophenylphosphonic acid) 400 mg/kg, scMet: ( ) II (diethyl ester of 3-aminophenylphosphonic acid) 200 mg/kg, MES; ( ) III (diisopropyl ester of 3-aminophenylphosphonic acid) 300 mg/kg, MES: ( ) IV (diethyl-2-acetamidophenylphosphate) 300 mg/kg, MES.
# All tests were performed on male Carworth Farms No. 1 mice by the Antiepileptic Drug Development Program administered by the Section of Epilepsy, National Institutes of Health, Bethesda, MD 20014, according to previously described procedures [DHEW Publication No. (NIH) 76-1093 (1976), Bethesda, MD]. […] The time of peak anticonvulsant activity were determined for II (200 mg/kg), III (300 mg/kg) and IV (300 mg/kg) against MES and for I (200 mg/kg) against scMet with dosing of I-III at 0.5, […]. using four mice per dose. Neurotoxicity was evaluated by placing an animal on a 1 in. diameter knurled plastic rod and rotating at 6 rpm. […]
# neurotoxicity (Rotorod) [11] = assay: Rotorod neurotoxicity test (failure to remain on rotating rod, 6 rpm, for 1 min); format: in vivo, male Carworth Farms No. 1 mice
# Method: as §1
# [12] = test system: seizures induced by subcutaneous bicuculline (scBic); assay: inhibition of seizures induced by subcutaneous bicuculline (scBic), 2.7 mg/kg; format: in vivo, male Carworth Farms No. 1 mice
# Method: as §1, with “600.” for “600. Quantification of anticonvulsant activity was similarly determined as follows (compound, test, mg/kg), I, MES, 100, 140, 150, 160, 170, 190, 250; I, scMet, 140, 200, 240, 300, 400, 500; I, scBic, 350, 400, 450, 475, 500; I, scPic, 150, 250, 330, 440, 500; II, MES, 130, 170, 200, 230; II, scMet, 150, 180, 230, 300; III, MES, 220, 240, 280, 290, 300; III, scMet, 300, 400, 500, 600; IV, MES, 150, 220, 300, 400, 500, 600; IV, scMet, 300, 410, 470, 600, 760.”
# [13] = test system: seizures induced by subcutaneous picrotoxin (scPic); format: in vivo, male Carworth Farms No. 1 mice
# Method: as §1, with “600.” for “600. Quantification of anticonvulsant activity was similarly determined as follows (compound, test, mg/kg), I, MES, 100, 140, 150, 160, 170, 190, 250; I, scMet, 140, 200, 240, 300, 400, 500; I, scBic, 350, 400, 450, 475, 500; I, scPic, 150, 250, 330, 440, 500; II, MES, 130, 170, 200, 230; II, scMet, 150, 180, 230, 300; III, MES, 220, 240, 280, 290, 300; III, scMet, 300, 400, 500, 600; IV, MES, 150, 220, 300, 400, 500, 600; IV, scMet, 300, 410, 470, 600, 760.”
# [14] = mice, pentylenetetrazol 85 mg/kg s.c.
SMILES,"ED50, scBic [1] [mg/kg]","ED50, scPic [2] [mg/kg]","ED50, scMet [4] [mg/kg]",time to peak effect [5] [min],"ED50, MES ([7]; mice) [mg/kg]","P.I. (protective index, TD50/ED50), MES ([7]; mice)",TD50 at 0.5 h [8] [mg/kg],"P.I. (protective index, TD50/ED50), scMet ([9]; mice)",other results
"CCCC(CCC)C(=O)O [VPA, Valproic Acid]",359.95,387.21,148.59,16,,,,,"ED50, MES [3]: 217.66 mg/kg"
CCC1(C)CC(=O)NC1=O (stereo not drawn) [Ethosuximide],459.01,242.69,,30,,,,,
CN1C(=O)OC(C)(C)C1=O [Trimethadione],532.12,408.09,300.45,60,,,,,"P.I. (protective index, TD50/ED50), scBic [1]: 1.54; P.I. (protective index, TD50/ED50), scPic [2]: 2.01; TD50, Rotorod neurotoxicity test (neurotoxicity (Rotorod) [6]): 819.07 mg/kg; P.I. (protective index, TD50/ED50), scMet [4]: 2.73"
CCC1(c2ccccc2)C(=O)NC(=O)NC1=O [Phenobarbital],37.72,27.51,13.17,60,,,,,
"CC(C)OP(=O)(OC(C)C)c1cccc(N)c1 [III, diisopropyl ester of 3-aminophenylphosphonic acid]",,,,,266.49,1.17,311,,
"CCOP(=O)(OCC)Oc1ccccc1NC(C)=O [IV, diethyl-2-acetamidophenylphosphate]",,,,,,1.31,458,1.03,"ED50 ([9]; Mus musculus, ip, mice, pentylenetetrazol 85 mg/kg s.c.): 444 mg/kg; ED50 ([7]; Mus musculus, ip, mice): 348 mg/kg; latent protective effect in time course [10]: slight degree of latent protective effect; time course of neurotoxicity (neurotoxicity (Rotorod) [11]; mice, i.p., IV 580 mg/kg, up to 24 hours): high and prolonged toxicity beginning after two hours and persisting at this level from 6 to 24 hours"
"COP(=O)(OC)c1cccc(N)c1 [I, dimethyl ester of 3-aminophenylphosphonic acid]",,,,,166.46,4.08,680,2.83,"ED50, scMet [9, 14]: 239.93 mg/kg; result in scMet test compared with VPA ([9]; relative to VPA): nearly identical results as VPA; activity profile in all three testing procedures compared with trimethadione ([9]; scMet, scBic, scPic): very similar to trimethadione; P.I. (protective index, TD50/ED50), scBic ([12]; mice, i.p., TD50/ED50): 1.56; ED50, scBic ([12]; mice, i.p., bicuculline 2.7 mg/kg s.c.): 435.94 mg/kg; effectiveness against scBic relative to VPA ([12]; relative to VPA): 1.3 times; times better than valproic acid against chemically induced seizures ([12]; second of two chemically induced seizures (scBic)): 1.3 times; times better than valproic acid against chemically induced seizures ([13]; first of two chemically induced seizures (scPic)): 1.8 times; P.I. (protective index, TD50/ED50), scPic ([13]; mice, i.p., TD50/ED50): 2.02; ED50, scPic ([13]; mouse, in vivo, ip): 336.20 mg/kg; effectiveness against scPic relative to VPA ([13]; relative to VPA): 1.8 times; factor of greater protection against MES than VPA [7]: 2.6 times; factor of greater protection against MES than VPA ([7]; listed as dimethyl ester of 3-aminophenylphosphonic acid): about 2.5 times; neurotoxicity dose level (neurotoxicity (Rotorod) [11]; compared with valproic acid): superior neurotoxicity dose level"
"CCOP(=O)(OCC)c1cccc(N)c1 [II, diethyl ester of 3-aminophenylphosphonic acid]",,,,,175.43,2.22,389,1.86,"ED50, scMet [9, 14]: 208.73 mg/kg; factor of greater protection against MES than VPA [7]: 1.4 times"
